Molecular target: T1, BIK channels (Homo sapiens, UniProt Q96T55, A277E)
T1 construct: expressed in transfected cells
T1 sequence (Q96T55 1-294 isoform Q96T55-3 A277E): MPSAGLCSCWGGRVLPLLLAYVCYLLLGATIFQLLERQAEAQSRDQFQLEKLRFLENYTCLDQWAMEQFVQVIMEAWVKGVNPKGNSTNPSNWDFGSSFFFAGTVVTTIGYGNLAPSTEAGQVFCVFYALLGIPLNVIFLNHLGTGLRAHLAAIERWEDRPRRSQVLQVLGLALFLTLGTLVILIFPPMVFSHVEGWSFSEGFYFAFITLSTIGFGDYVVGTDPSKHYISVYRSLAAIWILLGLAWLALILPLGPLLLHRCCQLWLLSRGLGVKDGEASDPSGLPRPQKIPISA
Test: FlexStation / FLIPR Membrane Potential Dye assay in stable HEK293 transfectants
Type: cell-based
Protocol: HEK293 cells stably transfected with pcDNA3.1 (circles) or the same vector allowing expression of BIK (squares) or TASK-2 (triangles) were plated in 96 well assay plates 24 h prior to analysis. Cells were incubated in 100 μl of 0.5×FLIPR Membrane Potential Dye (Molecular Devices) for 30 min. Methanadamide dilutions in DMSO were added to the wells by a FlexStation device (Molecular Devices), the fluorescence intensity changes were recorded before, during and after addition of the compound. The fluorescence intensity changes are plotted as the percent increase from the basal value recorded prior to compound addition. The values are the mean and range of duplicate wells. Similar results were obtained in three other independent experiments.
High level expression of a background/leak potassium channel such as BIK in fibroblasts results in hyperpolarization of the plasma membrane. Further, monitoring the membrane potential of these cells provides an assay for detecting small molecule blockers of BIK. We made stable HEK293 cell lines expressing BIK (and the well characterized background channel TASK2 for comparison) and characterized them using a FLIPR Membrane Potential Dye and FlexStation microplate fluorometer. […] Furthermore, BIK and TASK2 cells display a 3 to 5-fold greater change in fluorescence upon depolarization with 30 mM KCl compared to vector transfected stable cell lines. […]

## CCCCC/C=C\C/C=C\C/C=C\C/C=C\CCCC(=O)N[C@H](C)CO [Methanandamide]
HEK293 stably transfected with pcDNA3.1, BIK or TASK-2, fluorescence change as percent increase from basal
  selectivity of BIK channel inactivation (result in words): partially selective inactivator of BIK
Compound at 100 μM, HEK293 cells stably expressing BIK vs TASK2 or vector (pcDNA3.1)
  fold greater increase in fluorescence (depolarization) in BIK cells than in TASK2 or vector control cells: 3 fold

— patent US7491533B2, “Polynucleotides encoding an isolated β-islet cell two-pore domain potassium channel” (Metabolex, Inc., priority 2002, dated 2009)
